Reference: publication PMC10296061, “Inhibition of the Mitochondrial Carnitine/Acylcarnitine Carrier by Itaconate through Irreversible Binding to Cysteine 136: Possible Pathophysiological Implications” (Biomolecules, 2023)
Changes are numbered by the printed parent chain. Like-named read-outs stand apart in the source and are kept apart here.

Tests used:
Format in all cases: biochemical
recombinant CAC (WT) = molecular target: T1, recombinant CAC (WT) (Rattus norvegicus, UniProt P97521); assay: [3H]carnitine/carnitine antiport in proteoliposomes reconstituted with recombinant WT CAC
T1 construct: made in house; host or cells: E. coli C0214
T1 sequence (P97521 1-301): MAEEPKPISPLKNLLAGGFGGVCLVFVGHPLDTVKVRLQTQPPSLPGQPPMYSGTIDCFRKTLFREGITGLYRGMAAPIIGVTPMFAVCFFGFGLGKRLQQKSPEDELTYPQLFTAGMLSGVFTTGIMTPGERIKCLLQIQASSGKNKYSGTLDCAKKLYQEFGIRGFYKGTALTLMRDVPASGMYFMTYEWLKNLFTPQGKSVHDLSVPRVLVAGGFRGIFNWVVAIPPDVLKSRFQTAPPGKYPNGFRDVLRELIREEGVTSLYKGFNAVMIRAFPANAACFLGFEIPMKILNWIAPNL
Procedure: (§1) As previously described, the pMW7-WTratCAC recombinant plasmid was used for over-expressing the rat CAC [22]. The overlap extension method was used to introduce the mutations; in the main time, NdeI and HindIII restriction sites were also added using appropriate primers. The PCR products were purified by the QIAEX II Gel Extraction Kit (QIAGEN) and digested with NdeI and HindIII and then ligated into the pMW7. All mutations were verified by DNA sequencing. The resulting plasmid constructs were transformed into E. coli C0214. Overexpression, inclusion body fraction preparation, and purification of the CAC proteins were performed as previously described.
(§2) As previously described, recombinant CAC (WT and mutants) and ORC1 proteins were used for proteoliposome formation. For experiments with native CAC, ORC1, or ANT proteins, rat liver mitochondria, or HeLa cell mitochondria, the latter for the CAC alone, were first purified using the standard procedure of cell disruption and differential centrifugation. Then proteins were extracted using 3% Triton X-100 and reconstituted as described for the recombinant proteins. The concentration of intraliposomal carnitine and ornithine was 15 mM and 30 mM, respectively, in all samples.
To test the transport activity of the CAC, 550 μL of proteoliposomes was passed through a Sephadex G-75 column to remove the external substrate. Six hundred μL of the turbid eluate was collected, divided into samples of 100 μL each, and used for transport measurement by the inhibitor-stop method. Transport was started by adding 0.1 mM [^3H]carnitine ([^3H]ornitine or [^3H]ATP) to proteoliposome samples and stopped with 1.5 mM NEM (N-ethylmaleimide) at the indicated time interval. In the control samples, NEM was added with the labeled substrate at time zero. Transport rates were measured in 10 min, i.e., within the initial linear range of the time course, at 25 °C. After terminating the transport reaction, the external substrate was removed by chromatography on the Sephadex G-75 column, and the intraliposomal radioactivity was measured. The experimental values were corrected by subtracting the controls.
Figure 1 Effect of itaconate on the native and recombinant mitochondrial carnitine/acylcarnitine (CAC). Dose–response analysis for itaconate inhibition was carried out using proteoliposomes reconstituted with native (○) or recombinant (●) CAC carriers. After 10 min of itaconate incubation, transport activity was started by adding 0.1 mM [^3H]carnitine and stopped after 10 min as described in Section 2. Percent of residual activity with respect to the control, without itaconate treatment, was reported. The values are the means ± SD from three independent experiments.
Figure 2 Effect of different pH on the inhibition of CAC protein by itaconate. (a) Proteoliposomes reconstituted with the recombinant CAC were incubated at various pHs (range pH 6.5–8.5) for 10 min with 10 mM itaconate. (b) Dose–response analysis of inhibition by itaconate of the recombinant CAC at pH 6.5. was performed. Proteoliposomes were incubated for 10 min at pH 6.5 with itaconate at the indicated concentrations. In both (a,b), the transport activity was measured for 10 min by adding to proteoliposomes 0.1 mM [^3H]carnitine.

CAC C155A mutant = molecular target: T2, CAC C155A mutant (Rattus norvegicus, UniProt P97521, C155A); assay: Transport assay in proteoliposomes, CAC mutant C155A; details: read-out: IC50 for itaconate inhibition
T2 construct: made in house; host or cells: E. coli C0214
T2 sequence (P97521 1-301 C155A): T1 sequence (P97521 1-301) with C155A
Procedure: as §1, with “described. […]” for “described.”
(§3) To test the transport activity of the CAC, 550 μL of proteoliposomes was passed through a Sephadex G-75 column to remove the external substrate. […] Transport rates were measured in 10 min, i.e., within the initial linear range of the time course, at 25 °C. After terminating the transport reaction, the external substrate was removed by chromatography on the Sephadex G-75 column, and the intraliposomal radioactivity was measured. […]
(§4) Figure 3 Identification of residue responsible for itaconate inhibition. […] Transport activity of the WT (○), C136A (●), C155A (Δ), C23V/C58V/C89S/C155V/C283S (▲), and C23V/C58V/C89S/C136V/C155V/C283S (□) was measured by adding 0.1 mM [^3H]carnitine after treatment by itaconate at the indicated concentrations. […]

[1] = molecular target: T3, native ornithine/citrulline carrier (ORC, SLC25A15) (Rattus norvegicus, UniProt A0A0G2K309); assay: [3H]ornithine transport in proteoliposomes reconstituted with native ORC; details: read-out: IC50 for itaconate inhibition
T3 construct: from tissue; host or cells: rat liver mitochondria
T3 sequence (A0A0G2K309 1-301): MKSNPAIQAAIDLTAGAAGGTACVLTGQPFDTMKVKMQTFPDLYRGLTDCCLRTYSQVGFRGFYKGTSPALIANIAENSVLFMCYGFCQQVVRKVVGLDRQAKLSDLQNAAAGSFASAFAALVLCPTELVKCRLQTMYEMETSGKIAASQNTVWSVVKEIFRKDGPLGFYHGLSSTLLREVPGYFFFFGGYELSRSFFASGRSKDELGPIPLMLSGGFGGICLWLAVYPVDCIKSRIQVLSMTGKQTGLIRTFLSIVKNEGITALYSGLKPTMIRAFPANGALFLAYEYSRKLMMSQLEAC
Excerpt: as §2, §3, §4

With `C=C(CC(=O)O)C(=O)O` [itaconate] the “reversal of inhibition by the reducing agent DTE” value (recombinant CAC (WT); 10 mM itaconate pre-incubation 10 min, 25 mM DTE, transport 30 min) was “not able to reverse the inhibition”, the inhibition at 10000 µM (recombinant CAC (WT); 10 mM itaconate, 10 min, pH 6.5, read-out: inhibition of transport) was ~80% and the inhibition of transport (recombinant CAC (WT); 10 mM itaconate, 10 min, pH 8.0 and pH 8.5) was “Virtually no inhibition”. For the same molecule, the inhibition at 10000 µM (recombinant CAC (WT); 10 mM itaconate, pH 7.0, 10 min, without carnitine, unreacted compound removed by G-75, read-out: inhibition compared to the control) was ~55%, the type of inhibition (recombinant CAC (WT); WT, double reciprocal plot) was “non-competitive inhibition” and the Ki (recombinant CAC (WT); pH 7.0, 10 mM itaconate, Lineweaver-Burk plot) was 14 ± 2.6 mM. For the same molecule, the IC50 (recombinant CAC (WT); recombinant CAC, 10 min incubation, 0.1 mM [3H]carnitine, pH 7.0, read-out: IC50 for itaconate inhibition of transport) was 8.4 ± 2.9 mM, the IC50 (recombinant CAC (WT); recombinant WT CAC, pH 6.5, 10 min incubation, read-out: IC50 for inhibition of transport at pH 6.5) was 3.8 ± 1 mM and the IC50 (CAC C155A mutant) was 3.8 ± 0.64 mM. It also gave an IC50 [1] of 52 ± 5.5 mM.
